From patent US8178496B2, “Photoreactive regulator of glutamate receptor function and methods of use thereof” (The Regents of the University of California, priority 2007, dated 2012)
Entries after “also recorded” stand apart in the source; their conditions may differ.

Legend:
[1] = system: cultured rat hippocampal neurons; experiment: Whole-cell current clamp recording of cultured hippocampal neurons; type: cell-based
Experimental: (§1) Patch clamp recordings were carried out using an Axopatch 200A amplifier in the whole cell mode. HEK cells were voltage clamped at −60 mV and hippocampal neurons were current clamped at −65 mV. Pipettes had resistances 2-6 MΩ. For experiments in HEK cells, pipettes were filled with a solution containing (in mM): 145 CsCl, 5 EGTA, 0.5 CaCl2, 1.0 MgCl2 and 10 HEPES at pH7.2 (CsOH). The extracellular solution contained (in mM): 135 NaCl, 5.4 KCl, 0.9 MgCl2, 1.8 CaCl2, and 10 HEPES at pH 7.6 (NaOH). Cells were preincubated for 10 min in control solution containing 300 mg/l Concanavalin A type VI (Sigma) in order to block desensitization. For experiments in hippocampal neurons, pipettes were filled with a solution containing (in mM): 10 NaCl, 1 EGTA, 135 K-gluconate, 2.0 MgCl2, 10 HEPES and 2 Mg-ATP at pH7.4 (KOH). The extracellular solution contained (in mM): 138 NaCl, 1.5 KCl, 1.2 MgCl2, 2.5 CaCl2, 10 glucose and 10 HEPES at pH 7.3 (NaOH). […] Illumination was applied using a TILL Photonics Polychrome V monochromator through a 40×/0.60 W objective (power output: 4.8 mW/mm^2 at 500 nm and 1.8 mW/mm^2 at 380 nm, as measured with a Newport optical power meter). Data was recorded with pClamp software, which was also used to automatically control the monochromator by means of sequencing keys. […]

[2] = target: T1, wild-type iGluR6(Q) (Homo sapiens, UniProt Q13002); experiment: Whole-cell voltage clamp recording in HEK293 cells expressing iGluR6(Q); type: cell-based
T1 construct: expressed in transfected cells; host or cells: HEK293
T1 sequence (Q13002 32-908): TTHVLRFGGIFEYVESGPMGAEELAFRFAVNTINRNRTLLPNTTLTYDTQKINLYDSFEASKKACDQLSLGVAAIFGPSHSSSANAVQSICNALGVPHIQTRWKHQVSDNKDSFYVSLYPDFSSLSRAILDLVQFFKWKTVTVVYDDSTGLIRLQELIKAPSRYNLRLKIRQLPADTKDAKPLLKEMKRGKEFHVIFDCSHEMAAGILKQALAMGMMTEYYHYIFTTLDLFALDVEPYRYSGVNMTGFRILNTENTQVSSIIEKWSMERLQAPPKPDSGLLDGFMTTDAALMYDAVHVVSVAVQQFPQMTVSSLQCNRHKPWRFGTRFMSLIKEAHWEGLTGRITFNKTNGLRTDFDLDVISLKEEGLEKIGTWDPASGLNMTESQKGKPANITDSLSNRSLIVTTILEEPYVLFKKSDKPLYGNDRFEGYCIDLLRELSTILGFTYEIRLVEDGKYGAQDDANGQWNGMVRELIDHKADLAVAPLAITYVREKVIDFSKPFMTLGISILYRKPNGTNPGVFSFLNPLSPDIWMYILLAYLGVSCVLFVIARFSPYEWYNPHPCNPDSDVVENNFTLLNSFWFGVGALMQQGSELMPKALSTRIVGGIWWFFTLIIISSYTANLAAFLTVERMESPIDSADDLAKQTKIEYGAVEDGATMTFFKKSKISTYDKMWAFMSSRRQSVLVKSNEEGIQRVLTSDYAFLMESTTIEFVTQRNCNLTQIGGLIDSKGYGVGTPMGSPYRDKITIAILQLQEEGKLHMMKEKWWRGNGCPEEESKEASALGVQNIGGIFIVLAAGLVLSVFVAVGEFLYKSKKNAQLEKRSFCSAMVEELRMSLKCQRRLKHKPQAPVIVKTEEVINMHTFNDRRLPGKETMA
Experimental: (§2) HEK293 cells were plated at approximately 3×10^6 cells/ml on poly-L-lysine-coated glass coverslips (Deutsche Spiegelglas, Carolina Biological) and maintained in DMEM with 5% newborn calf serum, 0.2 mg/ml streptomycin, and 200 U/ml penicillin at 37° C. Cells were transiently transfected with various plasmids using lipofectamine 2000 (Invitrogen). The amount of total transfected ionotropic glutamate receptor-2 (iGluR2), iGluR5, and iGluR6 DNA and enhanced yellow fluorescent protein (EYFP) fusion DNA per 0.5 mL well was fixed at 0.7 μg and 0.3 μg, respectively. All recordings were carried out 24 to 48 h after transfection.
(§3) Patch clamp recordings were carried out using an Axopatch 200A amplifier in the whole cell mode. HEK cells were voltage clamped at −60 mV and hippocampal neurons were current clamped at −65 mV. Pipettes had resistances 2-6 MΩ. For experiments in HEK cells, pipettes were filled with a solution containing (in mM): 145 CsCl, 5 EGTA, 0.5 CaCl2, 1.0 MgCl2 and 10 HEPES at pH7.2 (CsOH). The extracellular solution contained (in mM): 135 NaCl, 5.4 KCl, 0.9 MgCl2, 1.8 CaCl2, and 10 HEPES at pH 7.6 (NaOH). Cells were preincubated for 10 min in control solution containing 300 mg/l Concanavalin A type VI (Sigma) in order to block desensitization. For experiments in hippocampal neurons, pipettes were filled with a solution containing (in mM): 10 NaCl, 1 EGTA, 135 K-gluconate, 2.0 MgCl2, 10 HEPES and 2 Mg-ATP at pH7.4 (KOH). The extracellular solution contained (in mM): 138 NaCl, 1.5 KCl, 1.2 MgCl2, 2.5 CaCl2, 10 glucose and 10 HEPES at pH 7.3 (NaOH). L-Glutamate, DNQX, and compound 2 were applied as reported in text and figures with complete exchange of the bath solution occurring in less than 10 sec. Compound 2 was not pre-irradiated prior to perfusion, but the bath and coverslip were continuously under illumination as denoted in traces. Following complete exchange of the bath, perfusion of 2 was stopped prior to switching illumination wavelengths. Illumination was applied using a TILL Photonics Polychrome V monochromator through a 40×/0.60 W objective (power output: 4.8 mW/mm^2 at 500 nm and 1.8 mW/mm^2 at 380 nm, as measured with a Newport optical power meter). Data was recorded with pClamp software, which was also used to automatically control the monochromator by means of sequencing keys. The results are representative data from multiple cells in at least three independent cultures.

[3] = system: iGluR2(Q)flip-L483Y; experiment: Whole-cell voltage clamp recording in HEK293 cells expressing iGluR2; type: cell-based
Experimental: as §2
Patch clamp recordings were carried out using an Axopatch 200A amplifier in the whole cell mode. HEK cells were voltage clamped at −60 mV and hippocampal neurons were current clamped at −65 mV. Pipettes had resistances 2-6 MΩ. For experiments in HEK cells, pipettes were filled with a solution containing (in mM): 145 CsCl, 5 EGTA, 0.5 CaCl2, 1.0 MgCl2 and 10 HEPES at pH7.2 (CsOH). […] Illumination was applied using a TILL Photonics Polychrome V monochromator through a 40×/0.60 W objective (power output: 4.8 mW/mm^2 at 500 nm and 1.8 mW/mm^2 at 380 nm, as measured with a Newport optical power meter). Data was recorded with pClamp software, which was also used to automatically control the monochromator by means of sequencing keys. […]

[4] = target: T2, iGluR5(Q) (Homo sapiens, UniProt P39086); experiment: Whole-cell voltage clamp dose-response in HEK293 cells expressing iGluR5(Q); type: cell-based
T2 construct: expressed in transfected cells; host or cells: HEK293
T2 sequence (P39086 31-918): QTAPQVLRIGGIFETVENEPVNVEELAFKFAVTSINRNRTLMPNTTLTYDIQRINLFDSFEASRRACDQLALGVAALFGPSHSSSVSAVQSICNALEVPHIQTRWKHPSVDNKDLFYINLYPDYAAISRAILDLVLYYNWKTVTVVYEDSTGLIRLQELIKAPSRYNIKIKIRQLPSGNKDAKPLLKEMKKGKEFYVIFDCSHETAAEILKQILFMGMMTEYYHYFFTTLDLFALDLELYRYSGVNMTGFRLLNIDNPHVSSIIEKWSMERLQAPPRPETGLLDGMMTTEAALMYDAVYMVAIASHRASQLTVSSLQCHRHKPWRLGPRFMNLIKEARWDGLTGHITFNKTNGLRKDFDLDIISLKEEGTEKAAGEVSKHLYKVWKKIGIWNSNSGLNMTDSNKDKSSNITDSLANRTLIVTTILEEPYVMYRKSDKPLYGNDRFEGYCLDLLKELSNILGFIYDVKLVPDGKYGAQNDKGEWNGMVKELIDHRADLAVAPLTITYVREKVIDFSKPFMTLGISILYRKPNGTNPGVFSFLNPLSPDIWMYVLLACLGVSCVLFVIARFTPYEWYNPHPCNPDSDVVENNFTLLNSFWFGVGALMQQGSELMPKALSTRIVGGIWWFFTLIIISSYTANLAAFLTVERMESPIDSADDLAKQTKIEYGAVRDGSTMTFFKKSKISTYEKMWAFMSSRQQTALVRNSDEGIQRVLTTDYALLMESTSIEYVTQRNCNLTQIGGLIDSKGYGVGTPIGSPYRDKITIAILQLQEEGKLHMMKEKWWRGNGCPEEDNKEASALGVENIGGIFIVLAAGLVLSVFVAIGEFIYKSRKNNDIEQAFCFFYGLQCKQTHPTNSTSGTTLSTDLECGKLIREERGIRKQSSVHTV
Experimental: as §2, §3

[5] = system: iGluR; experiment: Rates of light-driven channel activation and deactivation (whole-cell patch clamp); type: cell-based; conditions: mean±s.e.m., n=3
Experimental: as §1

[6] = Photostationary state determination by NMR with in situ irradiation; type: physicochemical; conditions: D2O, mean±s.e.m., n=3
Experimental: Cis/trans photoisomerization of 2 was studied by ^1H NMR, with in situ irradiation of the sample using a Polychrome V system monochromator (TILL Photonics) containing a 150 W Xenon short arc lamp with an output range of 320-680 nm. The half-power bandwidth was 14 nm. A 500 μl aliquot of a 100 mM sample in D2O was prepared in a screw-capped 528-TR-7 NMR tube (Wilmad). A FT-600-UMT fiber optic cable (NA 0.39) (Thorlabs) was coupled at one end to the monochromator using a custom fitting and the other end inserted into the NMR tube a few millimeters above the solution. Each sample was irradiated at the desired wavelength for 30 minutes to reach the photostationary state and 480 scans were required to obtain reasonable signal-to-noise ratios. The output from the fiber optic cable between 340-480 nm ranged from 0.3-9.0 μW/cm^2. Data were processed by isolating aromatic cis-trans ^1H signals and summing their integrals to 1.0. All data were obtained in triplicate and averaged.

## O=C1N=c2cc([N+](=O)[O-])c([N+](=O)[O-])cc2=NC1=O [DNQX, 6,7-dinitroquinoxaline-2,3-dione, reference compound]
[1]; 10 μM DNQX together with 25 μM 2, 380 and 500 nm illumination
  block of light activation with 2: Pharmacological block of light activation
[2]; 10 μM DNQX together with 50 μM 2, 380 and 500 nm illumination
  block of light activation with 2: Pharmacological block of light activation
[2]; HEK293 expressing iGluR6(Q)
  block of the activity of 2: competitively blocked

## N[C@@H](CC(C/C=C/c1ccc(/N=N/c2ccccc2)cc1)C(=O)O)C(=O)O (stereo partly shown) [Compound 2]
[3]; 250 μM, 380 and 500 nm illumination
  inward currents in the presence of 250 μM 2: failed to produce inward currents; also recorded: no effect in either the trans- (500 nm) or cis-state (380 nm)
[4]; dose-response curves under 380 and 500 nm light
  efficacy with respect to a 300 μM glutamate evoked response: approximately half-maximal efficacy
[4]; dose-response curves, iGluR5(Q) versus iGluR6(Q)
  selectivity at iGluR5 over iGluR6 receptors: high selectivity
[4]; under 380 nm light
  reduction of apparent agonist affinity (EC50) relative to 500 nm: ~10 fold
[4]; under 500 nm illumination, read-out: apparent agonist affinity (EC50)
  EC50: 9 µM
[1]; 25 μM, current clamped at −65 mV, no ConA, switching between 380 and 500 nm
  light-controlled action potential firing: sufficient to trigger, and extinguish, sustained trains of action potentials
[2]; 25 μM
  extent of iGluR6 channel activation: only activated to a small extent
[2]; HEK293, ConA 0.3 mg/mL pretreated, trans- versus cis-state
  channel activation (inward currents) depending on wavelength of irradiation: increased inward currents in the trans-relative to the cis-state
[5]; 380 nm, 1.8 mW/mm^2
  rate of deactivation τoff-380nm: 250 ± 14 ms
[5]; 500 nm, 4.8 mW/mm^2
  rate of activation τon-500nm: 310 ± 15 ms
[6]; 380 nm irradiation
  photostationary state content of cis-2: 76.3±0.3%
[6]; 500 nm irradiation
  photostationary state content of trans-2: 89±1%

## N[C@@H](CCC(=O)O)C(=O)O [Glu, reference compound]
[3]; 300 μM
  inward current evoked by 300 μM Glu: evokes a large inward current
